Measurements as given in patent publication US9695155B2, “Herbicidal substituted pyrimidinyloxy benzene compounds” (E. I. DU PONT DE NEMOURS AND COMPANY, priority 2013, dated 2017).

Assays:
[1] = tested on: rice; test: Test B flooded paddy test; format: in vivo, Oryza sativa; conditions: Flood, 250 g ai/ha, 0 to 100 scale where 0 is no effect and 100 is complete control
Method in brief: (§1)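 Plants were grown to the 2-leaf stage, then pots were flooded to 3 cm above the soil and compounds were applied directly into the paddy water. That depth was held throughout, and after 13 to 15 days in the greenhouse injury was rated visually against controls on a 0–100 scale (0 no effect, 100 complete control).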

[2] = tested on: Heteranthera limosa; test: Test B flooded paddy test; format: in vivo; conditions: Flood, 250 g ai/ha, 0 to 100 scale where 0 is no effect and 100 is complete control
Method in brief: as §1

[3] = tested on: wheat, winter; test: Test C preemergence; format: in vivo, Triticum aestivum
Method in brief: (§2)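 Preemergence: seeds sown in a loam soil–sand blend and sprayed with test chemical in a non-phytotoxic solvent mixture containing surfactant. Postemergence: plants at 2 to 18 cm (1- to 4-leaf stage) in peat-based medium, treated with the same formulation. Greenhouse 13 to 15 days, then visual rating 0 (no effect) to 100 (complete control).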

[4] = tested on: lambsquarters; test: Test C preemergence; format: in vivo, Chenopodium album
Method in brief: as §2

[5] = tested on: yellow nutsedge; test: Test C preemergence; format: in vivo, Cyperus esculentus
Method in brief: as §2

[6] = tested on: pigweed; test: Test C preemergence; format: in vivo, Amaranthus retroflexus
Method in brief: as §2

[7] = tested on: blackgrass; test: Test C postemergence; format: in vivo, Alopecurus myosuroides
Method in brief: as §2

[8] = tested on: Italian ryegrass; test: Test C postemergence; format: in vivo, Lolium multiflorum
Method in brief: as §2

[9] = tested on: lambsquarters; test: Test C postemergence; format: in vivo, Chenopodium album
Method in brief: as §2

[10] = tested on: pigweed; test: Test C postemergence; format: in vivo, Amaranthus retroflexus
Method in brief: as §2

[11] = tested on: soybean; test: Test C postemergence; format: in vivo, Glycine max
Method in brief: as §2

[12] = tested on: barnyardgrass; test: Test C postemergence; format: in vivo, Echinochloa crus-galli
Method in brief: as §2

[13] = tested on: kochia; test: Test C postemergence; format: in vivo, Kochia scoparia
Method in brief: as §2

[14] = 16 g ai/ha, preemergence, scale 0 to 100 (0 no effect, 100 complete control)
[15] = 62 g ai/ha, preemergence, scale 0 (no effect) to 100 (complete control)
[16] = 125 g ai/ha, preemergence, scale 0 (no effect) to 100 (complete control)
[17] = 16 g ai/ha, postemergence, 0 is no effect, 100 is complete control
[18] = 31 g ai/ha, postemergence, visual rating, scale 0 to 100 (0 no effect, 100 complete control), 13 to 15 days
[19] = 125 g ai/ha, postemergence, visual rating, scale 0 to 100 (0 no effect, 100 complete control)
[20] = Postemergence, 62 g ai/ha, scale 0 to 100 (0 no effect, 100 complete control)

SMILES: FC(F)(F)Sc1cnn(-c2ccccc2Oc2ncc(Cl)cn2)c1 [Compound 132, 5-chloro-2-[2-[4-(trifluoromethylthio)-1H-pyrazol-1-yl]phenoxy]pyrimidine]
- plant injury at 250 g/ha ([1]; Oryza sativa, read-out: Plant response rating, Rice): 0%
- pest or weed control at 250 g/ha ([2]; Heteranthera limosa, read-out: Plant response rating, Ducksalad): 0%
- plant injury at 16 g/ha ([3]; Triticum aestivum, pre-emergence, 16 g ai/ha, preemergence, scale 0 to 100 (0 no effect, 100 complete control), read-out: Wheat plant response rating): 0%
- plant injury at 62 g/ha ([3]; Triticum aestivum, pre-emergence, 62 g ai/ha, preemergence, scale 0 (no effect) to 100 (complete control), read-out: Wheat plant response rating): 0%
- plant injury at 125 g/ha ([3]; Triticum aestivum, pre-emergence, 125 g ai/ha, preemergence, scale 0 (no effect) to 100 (complete control), read-out: Wheat plant response rating): 0%
- plant injury at 31 g/ha ([3]; Triticum aestivum, pre-emergence, Preemergence, 31 g ai/ha, scale 0 to 100, 0 no effect, 100 complete control, read-out: Plant response rating, Wheat): 0%
- pest or weed control at 16 g/ha ([4]; Chenopodium album, pre-emergence, 16 g ai/ha, preemergence, scale 0 to 100 (0 no effect, 100 complete control), read-out: Lambsquarters plant response rating): 75%
- pest or weed control at 62 g/ha ([4]; Chenopodium album, pre-emergence, 62 g ai/ha, preemergence, scale 0 (no effect) to 100 (complete control), read-out: Lambsquarters plant response rating): 100%
- pest or weed control at 125 g/ha ([4]; Chenopodium album, pre-emergence, 125 g ai/ha, preemergence, scale 0 (no effect) to 100 (complete control), read-out: Lambsquarters plant response rating): 100%
- pest or weed control at 31 g/ha ([4]; Chenopodium album, pre-emergence, Preemergence, 31 g ai/ha, scale 0 to 100, 0 no effect, 100 complete control, read-out: Plant response rating, Lambsquarters): 55%
- pest or weed control at 16 g/ha ([5]; Cyperus, pre-emergence, 16 g ai/ha, preemergence, scale 0 to 100 (0 no effect, 100 complete control), read-out: Nutsedge, Yellow plant response rating): 100%
- pest or weed control at 62 g/ha ([5]; Cyperus, pre-emergence, 62 g ai/ha, preemergence, scale 0 (no effect) to 100 (complete control), read-out: Nutsedge, Yellow plant response rating): 15%
- pest or weed control at 125 g/ha ([5]; Cyperus, pre-emergence, 125 g ai/ha, preemergence, scale 0 (no effect) to 100 (complete control), read-out: Nutsedge, Yellow plant response rating): 15%
- pest or weed control at 31 g/ha ([5]; Cyperus, pre-emergence, Preemergence, 31 g ai/ha, scale 0 to 100, 0 no effect, 100 complete control, read-out: Plant response rating, Nutsedge, Yellow): 0%
- pest or weed control at 16 g/ha ([6]; Amaranthus retroflexus, pre-emergence, 16 g ai/ha, preemergence, scale 0 to 100 (0 no effect, 100 complete control), read-out: Pigweed plant response rating): 30%
- pest or weed control at 62 g/ha ([6]; Amaranthus retroflexus, pre-emergence, 62 g ai/ha, preemergence, scale 0 (no effect) to 100 (complete control), read-out: Pigweed plant response rating): 70%
- pest or weed control at 125 g/ha ([6]; Amaranthus retroflexus, pre-emergence, 125 g ai/ha, preemergence, scale 0 (no effect) to 100 (complete control), read-out: Pigweed plant response rating): 100%
- pest or weed control at 31 g/ha ([6]; Amaranthus retroflexus, pre-emergence, Preemergence, 31 g ai/ha, scale 0 to 100, 0 no effect, 100 complete control, read-out: Plant response rating, Pigweed): 45%
- pest or weed control at 16 g/ha ([7]; Alopecurus myosuroides, post-emergence, 16 g ai/ha, postemergence, 0 is no effect, 100 is complete control, read-out: Plant response rating (0 to 100), Blackgrass): 5%
- pest or weed control at 125 g/ha ([7]; Alopecurus myosuroides, post-emergence, 125 g ai/ha, postemergence, visual rating, scale 0 to 100 (0 no effect, 100 complete control), read-out: Plant response rating, Blackgrass): 5%
- pest or weed control at 31 g/ha ([7]; Alopecurus myosuroides, post-emergence, Postemergence, 31 g ai/ha, scale 0 to 100 (0 no effect, 100 complete control), 13 to 15 days, read-out: Plant response rating, Blackgrass): 5%
- pest or weed control at 62 g/ha ([7]; Alopecurus myosuroides, post-emergence, Postemergence, 62 g ai/ha, scale 0 to 100 (0 no effect, 100 complete control), read-out: Plant response rating, Blackgrass): 10%
- pest or weed control at 16 g/ha ([8]; Lolium multiflorum, post-emergence, 16 g ai/ha, postemergence, 0 is no effect, 100 is complete control, read-out: Plant response rating (0 to 100), Ryegrass, Italian): 0%
- pest or weed control at 125 g/ha ([8]; Lolium multiflorum, post-emergence, 125 g ai/ha, postemergence, visual rating, scale 0 to 100 (0 no effect, 100 complete control), read-out: Plant response rating, Ryegrass, Italian): 5%
- pest or weed control at 62 g/ha ([8]; Lolium multiflorum, post-emergence, Postemergence, 62 g ai/ha, scale 0 to 100 (0 no effect, 100 complete control), read-out: Plant response rating, Ryegrass, Italian): 5%
- pest or weed control at 16 g/ha ([9]; Chenopodium album, post-emergence, 16 g ai/ha, postemergence, 0 is no effect, 100 is complete control, read-out: Plant response rating (0 to 100), Lambsquarters): 10%
- pest or weed control at 125 g/ha ([9]; Chenopodium album, post-emergence, 125 g ai/ha, postemergence, visual rating, scale 0 to 100 (0 no effect, 100 complete control), read-out: Plant response rating, Lambsquarters): 50%
- pest or weed control at 62 g/ha ([9]; Chenopodium album, post-emergence, Postemergence, 62 g ai/ha, scale 0 to 100 (0 no effect, 100 complete control), read-out: Plant response rating, Lambsquarters): 60%
- pest or weed control at 16 g/ha ([10]; Amaranthus retroflexus, post-emergence, 16 g ai/ha, postemergence, 0 is no effect, 100 is complete control, read-out: Plant response rating (0 to 100), Pigweed): 25%
- pest or weed control at 125 g/ha ([10]; Amaranthus retroflexus, post-emergence, 125 g ai/ha, postemergence, visual rating, scale 0 to 100 (0 no effect, 100 complete control), read-out: Plant response rating, Pigweed): 80%
- pest or weed control at 62 g/ha ([10]; Amaranthus retroflexus, post-emergence, Postemergence, 62 g ai/ha, scale 0 to 100 (0 no effect, 100 complete control), read-out: Plant response rating, Pigweed): 75%
- Soybean plant response rating (crop injury, 0-100 scale) at 16 g/ha ([11]; Glycine max, post-emergence, 16 g ai/ha, postemergence, 0 is no effect, 100 is complete control): 20%
- Soybean plant response rating (crop injury, 0-100 scale) at 125 g/ha ([11]; Glycine max, post-emergence, 125 g ai/ha, postemergence, visual rating, scale 0 to 100 (0 no effect, 100 complete control), read-out: Plant response rating, Soybean): 50%
- Soybean plant response rating (crop injury, 0-100 scale) at 62 g/ha ([11]; Glycine max, post-emergence, Postemergence, 62 g ai/ha, scale 0 to 100 (0 no effect, 100 complete control)): 35%
- pest or weed control at 16 g/ha ([12]; Echinochloa crus-galli, post-emergence, 16 g ai/ha, postemergence, 0 is no effect, 100 is complete control, read-out: Plant response rating (0 to 100), Barnyardgrass): 0%
- pest or weed control at 125 g/ha ([12]; Echinochloa crus-galli, post-emergence, 125 g ai/ha, postemergence, visual rating, scale 0 to 100 (0 no effect, 100 complete control), read-out: Plant response rating, Barnyardgrass): 5%
- pest or weed control at 31 g/ha ([12]; Echinochloa crus-galli, post-emergence, Postemergence, 31 g ai/ha, scale 0 to 100 (0 no effect, 100 complete control), 13 to 15 days, read-out: Plant response rating, Barnyardgrass): 0%
- pest or weed control at 62 g/ha ([12]; Echinochloa crus-galli, post-emergence, Postemergence, 62 g ai/ha, scale 0 to 100 (0 no effect, 100 complete control), read-out: Plant response rating, Barnyardgrass): 5%
- pest or weed control at 16 g/ha ([13]; Bassia scoparia, post-emergence, 16 g ai/ha, postemergence, 0 is no effect, 100 is complete control, read-out: Plant response rating (0 to 100), Kochia): 10%
- pest or weed control at 125 g/ha ([13]; Bassia scoparia, post-emergence, 125 g ai/ha, postemergence, visual rating, scale 0 to 100 (0 no effect, 100 complete control), read-out: Plant response rating, Kochia): 95%
- pest or weed control at 62 g/ha ([13]; Bassia scoparia, post-emergence, Postemergence, 62 g ai/ha, scale 0 to 100 (0 no effect, 100 complete control), read-out: Plant response rating, Kochia): 85%

SMILES: CCCOc1cnn(-c2c(C#N)cccc2Oc2ncc(Cl)cn2)c1 [Compound 150]
- Plant response rating, Rice [1]: 0
- Plant response rating, Ducksalad [2]: 90
- Wheat plant response rating [3, 14]: 0
- Wheat plant response rating [3, 15]: 5
- Wheat plant response rating [3, 16]: 5
- Lambsquarters plant response rating [4, 14]: 10
- Lambsquarters plant response rating [4, 15]: 80
- Lambsquarters plant response rating [4, 16]: 100
- Nutsedge, Yellow plant response rating [5, 14]: 0
- Nutsedge, Yellow plant response rating [5, 15]: 25
- Nutsedge, Yellow plant response rating [5, 16]: 40
- Pigweed plant response rating [6, 14]: 55
- Pigweed plant response rating [6, 15]: 100
- Pigweed plant response rating [6, 16]: 100
- Plant response rating (0 to 100), Blackgrass [7, 17]: 5
- Blackgrass plant response rating [7, 18]: 5
- Plant response rating, Blackgrass [7, 19]: 10
- Plant response rating, Blackgrass [7, 20]: 10
- Plant response rating (0 to 100), Ryegrass, Italian [8, 17]: 0
- Ryegrass, Italian plant response rating [8, 18]: 0
- Plant response rating, Ryegrass, Italian [8, 19]: 5
- Plant response rating, Ryegrass, Italian [8, 20]: 5
- Plant response rating (0 to 100), Lambsquarters [9, 17]: 10
- Lambsquarters plant response rating [9, 18]: 30
- Plant response rating, Lambsquarters [9, 19]: 80
- Plant response rating, Lambsquarters [9, 20]: 35
- Plant response rating (0 to 100), Pigweed [10, 17]: 40
- Pigweed plant response rating [10, 18]: 55
- Plant response rating, Pigweed [10, 19]: 65
- Plant response rating, Pigweed [10, 20]: 55
- Plant response rating (0 to 100), Soybean [11, 17]: 65
- Soybean plant response rating [11, 18]: 65
- Plant response rating, Soybean [11, 19]: 95
- Plant response rating, Soybean [11, 20]: 65
- Plant response rating (0 to 100), Barnyardgrass [12, 17]: 5
- Barnyardgrass plant response rating [12, 18]: 5
- Plant response rating, Barnyardgrass [12, 19]: 5
- Plant response rating, Barnyardgrass [12, 20]: 5
- Plant response rating (0 to 100), Kochia [13, 17]: 50
- Kochia plant response rating [13, 18]: 55
- Plant response rating, Kochia [13, 19]: 85
- Plant response rating, Kochia [13, 20]: 55
